In ChEMBL document CHEMBL1151416, “Revised structure of phaeantharine” (1983):

Key:
Staphylococcus aureus = assay: Antibacterial activity against Staphylococcus aureus by agar-diffusion test; type: functional
Bacillus subtilis = assay: Antibacterial activity against Bacillus subtilis by agar-diffusion test; type: functional

MIC (Staphylococcus aureus): 86 µg/mL
MIC (Bacillus subtilis): 74 µg/mL
Compound: COc1cc2cc[n+](C)c(Cc3ccc(Oc4cc(Cc5c6cc(OC)c(OC)cc6cc[n+]5C)ccc4OC)cc3)c2cc1OC [PHAEANTHARINE]
